Consider ten compounds from US6284896A, “Abeo-ergoline derivatives as 5HT1A ligands” (Pharmacia & Upjohn S.p.A., priority 1994, dated 2001).

As a reminder, the IC50 is the point on the concentration scale where inhibition reaches its midpoint.

For one assay, the target named is T1, 5-HT1A receptor (Rattus norvegicus, UniProt P19327).
T1 construct: Freezed hippocampus dissected out from rats were homogenized; from tissue; host or cells: rat hippocampus, crude synaptosome membranes
T1 sequence (P19327 1-422): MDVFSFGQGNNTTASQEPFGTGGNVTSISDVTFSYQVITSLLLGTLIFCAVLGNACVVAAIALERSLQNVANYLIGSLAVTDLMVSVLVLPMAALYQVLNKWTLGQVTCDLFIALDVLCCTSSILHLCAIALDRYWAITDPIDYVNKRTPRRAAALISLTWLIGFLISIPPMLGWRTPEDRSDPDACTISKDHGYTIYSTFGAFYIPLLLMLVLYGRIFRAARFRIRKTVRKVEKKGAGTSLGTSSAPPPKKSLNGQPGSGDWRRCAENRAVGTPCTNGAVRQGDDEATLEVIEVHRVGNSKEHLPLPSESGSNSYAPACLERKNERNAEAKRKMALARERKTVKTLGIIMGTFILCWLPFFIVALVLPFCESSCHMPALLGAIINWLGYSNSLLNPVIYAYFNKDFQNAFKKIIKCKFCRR
In words: Affinity for Serotonin 1A receptor, 3H-8-OH-DPAT binding test (rat hippocampus synaptosome membranes). As for the experimental part: Experiment 1: Affinity for Serotonin 1A (^5 KT1A) Receptor [^3 H-8-Hydroxy-2-dipropylaminotetralin (^3-8 -OH-DPTA)-Binding Test].
Preparation of crude synaptosome fraction and binding assay were conducted in accordance with the method reported in Journal of Neurochemistry, vol.
The supernatant was centrifuged at 40,000×g for 20 minutes at 0° C. and the resulting pellet was homogenized in 40 volumes of the above buffer and incubated at 37° C. for 10 minutes.
After completion of reaction, the suspension was centrifuged at 40,000×g for 20 minutes at 0° C. The resulting pellet was washed twice by resuspension in 40 volumes of the above buffer and centrifugation, and finally suspended in 60 volumes of ice-cold 50 mM Tris-HCl buffer (pH 7.4) containing 1 EM manganese chloride for use in the next assay.
To the aliquots (900 μl) of synaptosome membranes solution were added 50 μl of tritiated 8-OH-DPAT solution at the terminal concentration of 0.2 nM and 50 μl of test compound solution or 50 μl of its medium, and incubated at 37° C. for 10 minutes. Then to the mixture were added 5 ml of ice-cold 50 mM Tris-HCl buffer (pH 7.4) rapidly vacuum-filtered through Whatman^R GF/B. filters and was washed twice with 5 ml of the same buffer. The radioactivity of the residue remaining on the filters was measured by liquid scintillation counter. Non specific binding was determined under the presence of 10^-5 M serotonin (5-HT).

The next assay deals with D1 receptor. As to the kind of experiment: D1 receptor binding (Binding Profile table).
A further assay has as its target T2, D2 receptor (Rattus norvegicus, UniProt P61169).
T2 construct: Freezed corpus striatum dissected out from rats were homogenized; from tissue; host or cells: rat corpus striatum, crude synaptosome membranes
As to the kind of experiment: Affinity for Dopamine 2 (D2) receptor, 3H-Spiperone binding test (rat corpus striatum). How it is done: Experiment 3: Affinity for Dopamine 2 (D2) Receptor (^3 H-Spiperone Binding Test).
Preparation of crude synaptosome fraction and binding assays were conducted in accordance with the method reported in European Journal of Pharmacology, vol. 46, page 377, 1977 by I. Creese et al. Freezed corpus striatum dissected out from rats were homogenized in 100 volumes of ice-cold 50 mM Tris-HCl buffer (pH 7.7) and the suspension was centrifuged at 500×g for 10 minutes at 0° C. The supernatant was centrifuged at 50,000×g for 15 minutes at 0° C. and the resulting pellet was homogenized in 100 volumes of the above buffer and then the suspension was centrifuged at 50,000×g for 15 minutes at 0° C. again. The resulting pellet was homogenized in 150 volumes of 50 mM Tris-HCl buffer (pH 7.1) containing 120 mM potassium chloride, 2 mM calcium chloride, 1 mM magnesium chloride, 0.1% ascorbic acid and 10 μM pargyline. The suspension was incubated at 37° C. for 10 minutes and then provided as synaptosome membranes solution for the next assays. To the aliquots (900 μ) of synaptosome membranes solution were added 50 μl of 3H-Spiperone solution at the terminal concentration of 0.2 nM and 50 μl of test compound solution or 50 μl of its medium, and incubated at 37° C. for 20 minutes. After completion of the reaction, the mixture was rapidly vacuum-filtered through WhatmanR GF/B filters. The filters were washed three times with 5 ml of the above buffer, and then the radioactivity of the residue remaining on the filters was measured by liquid scintillation counter. Non specific binding was determined under presence of 100 μM of (L)-Sulpiride 50% inhibition concentration (IC50) of the test compound was graphically determined.

The target of the next assay is T3, 5-HT2 receptor (Rattus norvegicus, UniProt P14842).
T3 construct: Freezed cerebral cortex dissected out from rats were homogenized; from tissue; host or cells: rat cerebral cortex, crude synaptosome membranes
T3 sequence (P14842 whole entry): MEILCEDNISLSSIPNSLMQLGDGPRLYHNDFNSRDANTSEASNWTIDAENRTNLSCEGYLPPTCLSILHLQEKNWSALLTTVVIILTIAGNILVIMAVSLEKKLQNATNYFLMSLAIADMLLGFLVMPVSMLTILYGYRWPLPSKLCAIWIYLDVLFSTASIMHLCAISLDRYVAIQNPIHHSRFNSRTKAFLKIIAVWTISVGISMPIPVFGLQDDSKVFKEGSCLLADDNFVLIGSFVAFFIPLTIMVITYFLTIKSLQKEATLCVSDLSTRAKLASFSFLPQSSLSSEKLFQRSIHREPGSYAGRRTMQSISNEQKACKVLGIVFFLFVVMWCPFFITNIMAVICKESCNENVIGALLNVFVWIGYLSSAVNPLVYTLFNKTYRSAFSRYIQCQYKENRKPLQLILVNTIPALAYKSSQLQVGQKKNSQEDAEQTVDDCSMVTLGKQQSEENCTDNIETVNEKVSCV
As to the kind of experiment: Affinity for Serotonin 2 (5-HT2) receptor, 3H-Ketanserin binding test (rat cerebral cortex). Conditions: 3H-Ketanserin 0.2 mM (so in the source), 37° C., 20 minutes, read-out: Binding Profile IC50 5-HT2. As for the experimental part: Experiment 2: Affinity for Serotonin 2(5-HT2) Receptor (^3 H-Ketanserin Binding Test).
Preparation of crude synaptosome fraction and binding assay were conducted according to the method reported in Molecular Pharmacology, vol. 21, page 301, 1981 by Leysen et al.
Freezed cerebral cortex dissected out from rats were homogenized in 30 volumes of ice-cold 0.32M sucrose solution and the suspension was centrifuged at 1000×g for 10 minutes at 0° C. The supernatant was centrifuged at 40,000×g for 20 minutes at 0° C. and the resulting pellets was homogenized in 30 volumes of ice-cold 50 mM Tris-HCl buffer (pH 7.7) and incubated at 37° C. for 10 minutes. The suspension was centrifuged at 40,000×g for 20 minutes at 0° C. again. The resulting pellet was homogenized in 100 volumes of the above buffer and provided as synaptosome membranes solutiofifor the next assay.
To the aliquots (900μ) of synaptosome membranes solution were added 50 μl solution ^3 H-Ketanserin solution at the terminal concentration of 0.2 mM and 50 μl of test compound or its medium, and incubated at 37° C. for 20 minutes. After completion of the reaction, the mixture was rapidly vacuum-filtered through Whatman^R GF/B filters. The filters were washed three times with 5 ml of the above buffer, and then the radioactivity of the residue remaining on the filters was measured by liquid scintillation counter. Non specific binding was determined under the presence of 10 μM of mianserin. 50% inhibition concentration (ICY) of the test compound was graphically determined.

Where [1] appears, read: read-out: Binding Profile IC50 5-HT1A, tritiated 8-OH-DPAT 0.2 nM, rat hippocampus, 37° C., 10 minutes.
[2] abbreviates: tritiated 8-OH-DPAT 0.2 nM, rat hippocampus, 37° C., 10 minutes, read-out: Binding Profile IC50 5-HT1A.
The mark [3] stands for this setting: 3H-Spiperone 0.2 nM, rat corpus striatum, 37° C., 20 minutes, read-out: Binding Profile IC50 D2.

Where two headings read alike, the source gives them in different places.

T2 sequence (P61169 whole entry): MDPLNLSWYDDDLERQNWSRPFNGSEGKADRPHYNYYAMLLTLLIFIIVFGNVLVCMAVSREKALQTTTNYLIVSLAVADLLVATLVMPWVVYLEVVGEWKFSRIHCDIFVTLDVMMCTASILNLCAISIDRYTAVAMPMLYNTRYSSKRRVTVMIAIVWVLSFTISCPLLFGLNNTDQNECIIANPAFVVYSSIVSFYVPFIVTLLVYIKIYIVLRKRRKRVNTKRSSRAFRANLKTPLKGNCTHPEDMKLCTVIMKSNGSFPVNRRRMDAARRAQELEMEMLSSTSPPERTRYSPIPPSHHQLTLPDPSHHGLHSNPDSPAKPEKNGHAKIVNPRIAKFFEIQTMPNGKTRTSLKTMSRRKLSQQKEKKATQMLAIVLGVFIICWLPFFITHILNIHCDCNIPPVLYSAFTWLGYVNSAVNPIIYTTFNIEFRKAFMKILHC

Regarding `C[C@H]1CN(C)[C@@H]2Cc3c[nH]c4ccc([N+](=O)[O-])c(c34)C=C21` [Example 42, 5β(10→9)abeo-9,10-Didehydro-6-methyl-8β-methyl-14-nitro ergolina], the IC50 was 18 nM on 5-HT1A receptor (setting [1]); over 10000 nM at D1 receptor; 2000 nM at D2 receptor (read-out: Binding Profile IC50 D2, 3H-Spiperone 0.2 nM, rat corpus striatum, 37° C., 20 minutes); 1860 nM on 5-HT2 receptor.
Take `C[C@H]1CN(C)[C@@H]2C[C@@H]3CNc4ccc(Br)c(c43)C=C21` [Example 39, 5β(10→9)abeo-2,3β-Dihydro-9,10-didehydro-6-methyl-8β-methyl-12-bromo-ergoline]: the IC50 was 6 nM at 5-HT1A receptor, 7100 nM at D1 receptor, 130 nM on D2 receptor and 2080 nM on 5-HT2 receptor.
For the compound `CSc1[nH]c2cccc3c2c1C[C@@H]1C(=C3)[C@@H](C)CN1C` [Example 5, 5β(10→9)abeo-9,10-Didehydro-2-methylthio-6-methyl-8β-methyl-ergoline], the IC50 on 5-HT1A receptor came out at 800 nM; on D1 receptor, 2540 nM; on D2 receptor, 850 nM; on 5-HT2 receptor it was 800 nM.
`CC(=O)N1C[C@H]2C[C@@H]3C(=Cc4cccc1c42)[C@@H](C)CN3C` [Example 34, 5β(10→9)abeo-2,3β-Dihydro-9,10-didehydro-1-acetyl-6-methyl-8β-methyl-ergoline]: the IC50 on 5-HT1A receptor (setting [2]) is 100 nM; at D1 receptor, over 10000 nM; at D2 receptor (setting [3]), 5000 nM; on 5-HT2 receptor, over 10000 nM.
Turning to `C[C@H]1CN(C)[C@@H]2C[C@@H]3CN(C(N)=O)c4cccc(c43)C=C21` [Example 36, 5β(10→9)abeo-2,3β-Dihydro-9,10-didehydro-1-amino-carbonyl-6-methyl-8β-methyl-ergoline], the IC50 on 5-HT1A receptor (setting [2]) is 100 nM; at D1 receptor, over 10000 nM; at D2 receptor (setting [3]) it was 4480 nM; at 5-HT2 receptor it was over 10000 nM.
With `C[C@H]1CN(C)[C@@H]2C[C@@H]3CNc4cccc(c43)C=C21` [Example 33, 5β(10→9)abeo-2,3β-Dihydro-9,10-didehydro-6-methyl-8β-methyl-ergoline], the IC50 is 6 nM on 5-HT1A receptor (setting [1]), over 10000 nM at D1 receptor, over 10000 nM on D2 receptor (setting [3]) and over 10000 nM at 5-HT2 receptor.
As to `C[C@H]1CN(C)[C@@H]2C[C@@H]3CNc4ccc([N+](=O)[O-])c(c43)C=C21` [Example 40, 5β(10→9)abeo-2,3β-Dihydro-9,10-didehydro-6-methyl-8β-methyl-12 nitro-ergoline], the IC50 at 5-HT1A receptor (setting [2]) was determined as 3 nM; at D1 receptor, 2750 nM; on D2 receptor (setting [3]), 4870 nM; on 5-HT2 receptor, 1240 nM.
In the case of `CC(=O)N1C[C@@H]2C[C@@H]3C(=Cc4cccc1c42)[C@@H](C)CN3C` [Example 35, 5β(10→9)abeo-2,3α-Dihydro-9,10-didehydro-1-acetyl-6-methyl-8β-methyl-ergoline], the IC50 at 5-HT1A receptor (setting [2]) was 530 nM; at D1 receptor, over 10000 nM; at D2 receptor (setting [3]), 6030 nM; on 5-HT2 receptor, over 10000 nM.
On to `C[C@H]1CN(C)[C@@H]2Cc3c[nH]c4cccc(c34)C=C21` [Example 3, 5β(10→9)abeo-9,10-Didehydro-6-methyl-8β-methyl-ergoline], for which the IC50 at 5-HT1A receptor was 6 nM; on D1 receptor it was 1850 nM; on D2 receptor (setting [3]) it was 940 nM; on 5-HT2 receptor it was 110 nM.
On to `C[C@H]1CN(C)[C@@H]2Cc3c(Br)[nH]c4cccc(c34)C=C21` [Example 4, 5β(10→9)abeo-9,10-Didehydro-2-bromo-6-methyl-8β-methyl-ergoline], for which the IC50 came to 330 nM at 5-HT1A receptor (setting [2]), 1920 nM on D1 receptor, 620 nM on D2 receptor (setting [3]) and 1000 nM on 5-HT2 receptor.
